Laboratory results as given in patent publication US7026309B2, “Fused bicyclic pyridine derivative as tachykinin receptor antagonist” (Kyorin Pharmaceutical Co., Ltd., priority 2002, dated 2006).

Key:
NK1 receptor = molecular target: T1, NK1 receptor (Cavia porcellus, UniProt P30547); experiment: Test for NK1 receptor antagonist: substance P concentration-response in isolated guinea pig ileum, Schild analysis; type: cell-based; settings: substance P as agonist, 10 min pretreatment, method of Schild
T1 construct: from tissue; host or cells: isolated guinea pig ileum
Description: (1) Test for NK1 Receptor Antagonist
The method used was according to the method proposed by S. Dion et al. (Dion et al., Life Sciences 41(1987): 2269), to which minor modifications were made.
Guinea pigs were stunned by a blow on the head and were exsanguinated from the carotid artery and ilea were isolated. The ileum was mounted in an organ bath containing Tyrode's solution which was maintained at 32° C. and gased with 95% O2 and 5% CO2. The ileum was subjected to a resting tension of 1-gram and allowed to equilibrate for 20 minutes before the experiment was started. As a control, a concentration-response curve for substance P in the absence of any of test compounds was used. The NK1 receptor antagonist activity of each test compound was determined by a concentration-response curve obtained by pretreating at least three concentrations of the test compound for 10 minutes and subsequently applying substance P in a cumulative manner. The Kb values were determined according to the method of Schild and the results are shown in Table 1 (Schild Brit. J. Pharmacol. 14(1959): 48).
The composition of the Tyrode's solution was as follows: NaCl=136.9, KCl=2.7, CaCl2.2H2O=2.5, MgCl2.6H2O=1.0, NaH2PO4.2H2O=0.4, NaHCO3=11.9, glucose=11.1 (mmol/L).

[1] = tested on: effective bladder capacity; experiment: Cystometry test on guinea pigs with cut spinal cord; type: in vivo; settings: guinea pig
Description: (2) Cystometry Test on Guinea Pigs
The method used was according to the method proposed by JS. Peterson et al. (Peterson J S. et al., J. Pharmacol. Methods 21(1989): 231), to which minor modifications were made.
Guinea pigs were anesthetized with halothane and the tenth thoracic spinal cord was cut in each animal. Subsequently, both ureters were ligated and were cut on the kidney-side. Polyethylene catheters were inserted into the bladder to provide an injection pathway for physiological saline and a pathway for the measurement of intravesical pressure. Each animal was restricted in a Ballman cage and was left for more than 2 hours. Subsequently, room-temperature saline was injected through the bladder catheter into the bladder at a rate of 6 mL/hr to conduct a cystometry test. Once the effective bladder capacity was stabilized, a test compound was intravenously administered into the jugular vein. The effective bladder capacity is defined as the volume of saline injected from one urination to the next. The effect of each test compound was determined as the increase in the average bladder volume, which was determined based on the average bladder volume measured 30 minutes prior to the administration of the test compound and the average bladder volume measured every 30 minutes after the administration of the test compound.

T1 sequence (P30547 whole entry): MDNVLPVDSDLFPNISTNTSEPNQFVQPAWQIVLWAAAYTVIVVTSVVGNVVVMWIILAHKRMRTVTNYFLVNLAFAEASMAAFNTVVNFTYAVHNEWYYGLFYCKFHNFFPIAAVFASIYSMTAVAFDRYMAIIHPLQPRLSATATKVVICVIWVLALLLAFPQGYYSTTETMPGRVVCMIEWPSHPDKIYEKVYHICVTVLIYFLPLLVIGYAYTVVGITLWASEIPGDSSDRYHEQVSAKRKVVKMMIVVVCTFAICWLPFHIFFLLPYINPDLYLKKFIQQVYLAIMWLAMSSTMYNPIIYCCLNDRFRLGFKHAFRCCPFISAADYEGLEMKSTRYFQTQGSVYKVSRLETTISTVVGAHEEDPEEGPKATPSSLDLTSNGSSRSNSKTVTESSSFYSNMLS

Kb (NK1 receptor)	Structure (SMILES)	Increase in bladder capacity (%) ([1]; 0.3 mg/kg i.v.)	Increase in bladder capacity (%) ([1]; 1 mg/kg i.v.)	Increase in bladder capacity (%) ([1]; 3 mg/kg i.v.)
0.0888 nM	CC(=O)N1CCN(c2cc(-c3ccccc3C)c3c(n2)OCCCN(Cc2cc(C(F)(F)F)cc(C(F)(F)F)c2)C3=O)CC1 [Example 1, 9-(4-acetylpiperazine-1-yl)-5-[3,5-bis(trifluoromethyl)benzyl]-7-(2-methylphenyl)-6-oxo-2,3,4,5-tetrahydro-6H-pyrido[2,3-b][1,5]oxazocine]	32.2%		
0.294 nM	CC(=O)N1CCCN(c2cc(-c3ccccc3C)c3c(n2)OCCCN(Cc2cc(C(F)(F)F)cc(C(F)(F)F)c2)C3=O)CC1 [Example 6, 9-(4-acetylhomopiperazine-1-yl)-5-[3,5-bis(trifluoromethyl)benzyl]-7-(2-methylphenyl)-6-oxo-2,3,4,5-tetrahydro-6H-pyrido[2,3-b][1,5]oxazocine]			
0.269 nM	Cc1ccc(-c2c3n(c(=O)c4ncccc24)CC[C@@H](C)CN(Cc2cc(C(F)(F)F)cc(C(F)(F)F)c2)C3=O)cc1 [TAK-637]	12.0%	23.8%	20.5%
0.0847 nM	CC(=O)N1CCN(c2cc(-c3ccc(F)cc3)c3c(n2)OCCCN(Cc2cc(C(F)(F)F)cc(C(F)(F)F)c2)C3=O)CC1 [Example 2, 9-(4-acetylpiperazine-1-yl)-5-[3,5-bis(trifluoromethyl)benzyl]-7-(4-fluorophenyl)-6-oxo-2,3,4,5-tetrahydro-6H-pyrido[2,3-b][1,5]oxazocine]			
